Literature values, collected in patent US8846607B2, “Particles for treatment of pulmonary infection” (President and Fellows of Harvard College, priority 2004, dated 2014).

System: non-replicating TB
Settings: after one month, non-replicating TB in vitro

capreomycin
log decrease in colony forming units (CFU): one to two
